{"source": "patent US20100254928A1", "about": "“NOVEL COMPOSITION CONTAINING OZONIZED SURFACTANT” (priority 2007, published 2010)", "key": {"[1]": {"test_system": "slug", "experiment": "Insecticidal activity: test of killing slugs", "format": "in vivo", "conditions": "1% aqueous solution, 2 pushes: 1.88 mL sprayed from 15 cm above", "procedure": "In order to check the insect control performance of the ozonized surfactant, a test of killing slugs was performed. A slug was put into a glass petri dish. Onto the slug, a 1% aqueous solution of the ozonized surfactant obtained in Example 4, 5, 7, 9 or 10 (2 pushes: 1.88 mL) was sprayed from 15 cm above. After that, the time elapsed until the slug died (the motion stopped) was measured. As a control, the same evaluation was simultaneously performed with a commercial insecticide (product name: NEW Namekuji (slug) Spray, made by Sumitomo Chemical Garden Products Inc., Lot No. 11.05 0806JE) containing a natural substituted phenol, a copper compound and an alcohol, as active ingredients."}, "[2]": {"experiment": "Temporal change in oxidizing property (iodine titration method)", "format": "physicochemical", "conditions": "25° C.", "from_the_text": "After deaerating the obtained aqueous ozonized surfactant solution to remove dissolved ozone gas by helium purging, the oxidizing property of the aqueous ozonized surfactant solution can be determined by the iodine titration method (see Non Patent Literature 1). Whether or not the aqueous ozonized surfactant solution maintains a function as a surfactant can be evaluated by checking whether or not frothing, which is a characteristic of surfactants, occurs when the solution is agitated or vibrated.\nMeanwhile, oxygen was supplied from an oxygen cylinder into an ozonizer (ozonizer GR-RB made by Sumitomo Precision Products Co., Ltd.) at an oxygen flow rate of 0.3 L/min to ozonize the oxygen to produce ozone gas. Then, the ozone gas was dissolved in the above-described aqueous solution in a dissolving module (SEK model made by ERC Technology), and the aqueous solution was circulated at a flow rate of 1 L/min. […] Further, in 30 minutes, the concentration increased to 25 ppm (see FIG. 2). After deaerating the aqueous solution that had undergone about 30-minute ozone treatment to remove dissolved ozone gas by helium purging, oxidizing property of the aqueous solution was determined by the iodine titration method. As a result, the aqueous solution had oxidizing property, and frothing, which is a characteristic of surfactants, was observed. The results confirmed that ozonized Tween 80 had been produced. Further, a temporal change in the oxidizing property of the aqueous solution was determined by the iodine titration method at 25° C. for 20 days. As a result, the percentage of oxidizing property measured after 20 days to that measured just after preparation was 109%.\nThe solution A was diluted to a 1% aqueous solution, and a temporal change in the oxidizing property of the aqueous solution was determined by the iodine titration method at 25° C. for 700 days. As a result, the percentage of oxidizing property measured after 700 days to that measured just after preparation was 101%."}, "[3]": {"test_system": "insects such as ants", "experiment": "Repellent activity (Test Example 14)", "format": "in vivo, pill bug", "conditions": "2 mL of 1% aqueous solution on tissue paper with 1 g honey, 8 hours", "procedure": "The repellent performance of the ozonized surfactant of the present invention was checked. […] In addition, 1 g of honey was instilled into the center. […] These specimens were placed on leaf mold in a flower bed, and the conditions were observed 8 hours later."}, "[4]": {"test_system": "mold (filamentous fungus)", "experiment": "Evaluation of antiseptic activity in thickener solution", "format": "cell-based", "conditions": "0.1% in 3.5% Carbopol ETD2020 aqueous solution, 25° C.", "procedure": "In order to check the antiseptic performance of ozonized surfactants, the ozonized surfactants were added to a substance susceptible to mold. […] Into a 100 mL-glass bottle, 50 mL of the sample was charged. The bottles were kept at 25° C. in a thermostatic air chamber, and temporal changes were visually observed. […] The mold-like material was removed and examined under a 700-power microscope. As a result, spores were detected and the material was identified as a filamentous fungus. The above results confirmed the antiseptic activity of the ozonized surfactants."}, "[5]": {"test_system": "Arge pagana larva", "experiment": "Insecticidal activity: test of killing other insects", "format": "in vivo", "conditions": "2% aqueous solution, 1.88 mL sprayed", "procedure": "(§1) In order to check the insect control performance of the ozonized surfactant, a test of killing other insects was performed. An Orgyia thyellina larva, a Sphrageidus similis larva, and an Arge pagana larva were put into separate glass petri dishes. Onto each insect pest, a 2% aqueous solution of the solution obtained in Example 5 (2 pushes: 1.88 mL) was sprayed from 15 cm above. After that, the time elapsed until each insect died (the motion stopped) was measured."}, "[6]": {"test_system": "Sphrageidus similis larva", "experiment": "Insecticidal activity: test of killing other insects", "format": "in vivo", "conditions": "2% aqueous solution, 1.88 mL sprayed", "procedure": "as §1"}, "[7]": {"test_system": "Orgyia thyellina larva", "experiment": "Insecticidal activity: test of killing other insects", "format": "in vivo", "conditions": "2% aqueous solution, 1.88 mL sprayed", "procedure": "as §1"}, "[8]": {"experiment": "Surface-active property test (contact angle)", "format": "physicochemical", "procedure": "The surface-active properties of ozonized surfactants were determined in the following manner. Aqueous solutions each containing 1% Tween 80, POE (10 EO) oleyl ether or POE (20 EO) oleyl ether (all of which were made by Wako Pure Chemical Industries, Ltd.) were prepared. Each solution was dropped on a polyvinyl chloride plate and measured for a contact angle (θ) with the use of a contact angle meter CA-VP (made by Kyowa Interface Science Co., Ltd.). The same measurement was carried out for a 1% aqueous solution of the ozonized surfactant obtained in Example 1, 4, or 8."}}}
{"molecule": "Ozonized POE sorbitan monooleate (20 EO) [Example 7]", "values": [{"measurement": "Death time of slug", "setting": "[1]", "result": 244, "unit": "s"}, {"measurement": "percentage of oxidizing property measured after 700 days to that measured just after preparation", "setting": "[2]; 1% aqueous solution, 700 days", "result": 100, "unit": "%"}]}
{"molecule": "CCCCCCCC/C=C\\CCCCCCCC[N+](C)(C)CCCCCCCC/C=C\\CCCCCCCC.[Cl-]", "note": "[Unozonized surfactant of Ex. 10, dimethyldioleylammonium chloride, reference compound]", "values": [{"measurement": "ants gathered on the specimen", "setting": "[3]", "result": 15, "unit": "ants"}]}
{"molecule": "Ozonized POE (20 EO) oleyl ether [Example 8]", "values": [{"measurement": "percentage of oxidizing property measured after 300 days to that measured just after preparation", "setting": "[2]; 1% aqueous solution, 300 days", "result": 100, "unit": "%"}]}
{"molecule": "Ozonized polyethylene glycol monooleate [Example 5]", "values": [{"measurement": "Death time of slug", "setting": "[1]", "result": 729, "unit": "s"}, {"measurement": "Antiseptic activity of thickener soln. (visually observed), 1 month after", "setting": "[4]", "result": "Good"}, {"measurement": "Antiseptic activity of thickener soln. (visually observed), 1 week after", "setting": "[4]", "result": "Good"}, {"measurement": "Death time", "setting": "[5]", "result": 115, "unit": "s"}, {"measurement": "Death time", "setting": "[6]", "result": 130, "unit": "s"}, {"measurement": "Death time", "setting": "[7]", "result": 100, "unit": "s"}, {"measurement": "percentage of oxidizing property measured after 180 days to that measured just after preparation", "setting": "[2]; 1% aqueous solution, 180 days", "result": 100, "unit": "%"}]}
{"molecule": "POE (20 EO) oleyl ether", "values": [{"measurement": "Contact angle, After ozonization", "setting": "[8]; 1% aqueous solution of the ozonized surfactant obtained in Example 1, 4, or 8, on polyvinyl chloride plate", "result": "26.7 degree (°)"}, {"measurement": "Contact angle, Before ozonization", "setting": "[8]; 1% aqueous solution on polyvinyl chloride plate, ion exchange water 87.3°", "result": "59.4 degree (°)"}]}
{"molecule": "ozonized Tween 80 [Example 1]", "values": [{"measurement": "percentage of oxidizing property measured after 20 days to that measured just after preparation", "setting": "[2]; 0.1% aqueous solution, 20 days", "result": 109, "unit": "%"}]}
{"molecule": "Ozonized decaglycerin monooleate [Example 6]", "values": [{"measurement": "Antiseptic activity of thickener soln. (visually observed), 1 month after", "setting": "[4]", "result": "Good"}, {"measurement": "Antiseptic activity of thickener soln. (visually observed), 1 week after", "setting": "[4]", "result": "Good"}, {"measurement": "insects gathered on the specimen", "setting": "[3]", "result": "did not gather at all"}]}
{"molecule": "decaglycerin monooleate [Decaglycerol monooleate, reference compound]", "values": [{"measurement": "ants gathered on the specimen", "setting": "[3]", "result": 10, "unit": "ants"}]}
